The test system of one assay is T-47D. Briefly: Caspase cascade activation (N-(Ac-DEVD)-N'-ethoxycarbonyl-R110 fluorogenic substrate) in T-47D cells. Type of assay: cell-based, human. The following applies: 48 h incubation; for Caspase activity Ratio (net RFU of test compound to control): 0.016 to 10 μM final; for EC50: Homo sapiens, T47D, read-out: Caspase potency EC50. On the procedure: (§1) Human breast cancer cell lines T47D and ZR-75-1 were grown according to media component mixtures designated by American Type Culture Collection+10% FCS (Invitrogen Corporation), in a 5% CO2-95% humidity incubator at 37° C. T-47D and ZR-75-1 cells were maintained at a cell density between 50 and 80% confluency at a cell density of 0.1 to 0.6×10^6 cells/mL. Cells were harvested at 600×g and resuspended at 0.65×10^6 cells/mL into appropriate media+10% FCS. An aliquot of 45 μL of cells was added to a well of a 96-well microtiter plate containing 2.5 μL of a 10% DMSO in RPMI-1640 media solution containing 0.16 to 100 μM of 4-(bicyclo[2.2.1]hept-5-en-2-yl)-1-(pyridin-2-ylmethylidene)thiosemicarbazide or other test compound (0.016 to 10 μM final). An aliquot of 22.5 μL of cells was added to a well of a 384-well microtiter plate containing 2.5 μL of a 10% DMSO in RPMI-1640 media solution without test compound as the control sample. The samples were mixed by agitation and then incubated at 37° C. for 48 h in a 5% CO2-95% humidity incubator. After incubation, the samples were removed from the incubator and 25 μL of a solution containing 14 μM of N-(Ac-DEVD)-N′-ethoxycarbonyl-R110 (SEQ ID NO:1) fluorogenic substrate (Maxim Pharmaceuticals, Inc.; WO99/18856), 20% sucrose (Sigma), 20 mM DTT (Sigma), 200 mM NaCl (Sigma), 40 mM Na PIPES buffer pH 7.2 (Sigma), and 500 μg/ml lysolecithin (Calbiochem) was added. The samples were mixed by agitation and incubated at room temperature. Using a fluorescent plate reader (Model SpectraMax Gemini, Molecular Devices), an initial reading (T=0) was made approximately 1-2 min after addition of the substrate solution, employing excitation at 485 nm and emission at 530 nm, to determine the background fluorescence of the control sample. After the 3 h incubation, the samples were read for fluorescence as above (T=3 h).
(§2) The Relative Fluorescence Unit values (RFU) were used to calculate the sample readings as follows:
(§3) RFU(T=3 h)−Control RFU(T=0)=Net RFU(T=3 h)
(§4) The activity of caspase cascade activation was determined by the ratio of the net RFU value for 4-(bicyclo[2.2.1]hept-5-en-2-yl)-1-(pyridin-2-ylmethylidene)thiosemicarbazide or other test compound to that of control samples. The EC50 (nM) was determined by a sigmoidal dose-response calculation (Prism 2.0, GraphPad Software Inc.).

The test system of another assay is ZR-75-1. The assay is described as follows: Caspase cascade activation (N-(Ac-DEVD)-N'-ethoxycarbonyl-R110 fluorogenic substrate) in ZR-75-1 cells. Format: cell-based, human. Particulars: 48 h incubation; for Caspase activity Ratio (net RFU of test compound to control): 0.016 to 10 μM final. As for the experimental part:
as §1, §2, §3, §4

Another assay deals with T47-D. The assay is described as follows: Cell proliferation assay (CellTiter 96 AQUEOUS One) GI50, T47-D. Format: cell-based. Particulars: Homo sapiens, T47D; T47-D cells, 48 h. As for the experimental part: (§5) All the cell lines were grown according to the conditions recommended by American Type Culture Collection. An aliquot of 90 μL of cells (2.2×10^4 cells/mL) was added to a well of a 96-well microtiter plate containing 10 μL of a 10% DMSO in RPMI-1640 media solution containing 1 nM to 100 μM of 4-(bicyclo[2.2.1]hept-5-en-2-yl)-1-(pyridin-2-ylmethylidene)thiosemicarbazide (0.1 nM to 10 μM final). An aliquot of 90 μL of cells was added to a well of a 96-well microtiter plate containing 10 μL of a 10% DMSO in RPMI-1640 media solution without compound as the control sample for maximal cell proliferation (AMax). The samples were mixed by agitation and then incubated at 37° C. for 48 h in a 5% CO2-95% humidity incubator. After incubation, the samples were removed from the incubator and 20 μL of CellTiter 96 AQUEOUS One Solution Cell Proliferation™ reagent (Promega) was added. […] Using an absorbance plate reader (Model 1420 Wallac Instruments), an initial reading (T=0) was made approximately 1-2 min after addition of the solution, employing absorbance at 490 nm. This determines the possible background absorbance of the test compounds. No absorbance for 4-(bicyclo[2.2.1]hept-5-en-2-yl)-1-(pyridin-2-ylmethylidene)thiosemicarbazide was found at 490 nm. After the 2-4 h incubation, the samples were read for absorbance as above (ATest). […]

Another assay relates to MCF-7. Briefly: Cell proliferation assay GI50, MCF-7. The following applies: Homo sapiens, MCF7; MCF-7 cells, 48 h. Format: cell-based. On the procedure: as §5
Another assay deals with SK-Br-3. Briefly: Cell proliferation assay GI50, SK-Br-3. Format: cell-based. Particulars: Homo sapiens; SK-Br-3 cells, 48 h. On the procedure:
as §5

In the next assay the test system is MDA-MB-231. Briefly: Cell proliferation assay GI50, MDA-MB-231. Format: cell-based. The following applies: Homo sapiens; MDA-MB-231 cells, 48 h. On the procedure: as §5
The subject of a further assay is PC-3. The assay is described as follows: Cell proliferation assay GI50, PC-3. Particulars: Homo sapiens; PC-3 cells, 48 h. Format: cell-based. As for the experimental part: as §5
The test system of a further assay is HeLa. The assay is described as follows: Cell proliferation assay GI50, HeLa. Format: cell-based. The following applies: Homo sapiens; HeLa cells, 48 h. On the procedure:
as §5

The subject of a further assay is DLD-1. Briefly: Cell proliferation assay GI50, DLD-1. Type of assay: cell-based. Particulars: Homo sapiens; DLD-1 cells, 48 h. As for the experimental part:
as §5

The subject of the next assay is NCI-H23. The assay is described as follows: Cell proliferation assay GI50, NCI-H23. Type of assay: cell-based. Particulars: Homo sapiens; NCI-H23 cells, 48 h. As for the experimental part:
as §5

Another assay deals with K562. Briefly: Cell proliferation assay GI50, K562. Format: cell-based. The following applies: Homo sapiens; K562 cells, 48 h. As for the experimental part: as §5
The test system of the next assay is P388. Briefly: Cell proliferation assay GI50, drug sensitive P388. Type of assay: cell-based. Particulars: Mus musculus; P388 (drug sensitive) cells. On the procedure:
as §5

The next assay has as its system P388/ADR. The assay is described as follows: Cell proliferation assay GI50, drug resistant P388/ADR. Format: cell-based. Particulars: Mus musculus; P388/ADR (drug resistant) cells. As for the experimental part:
as §5

On to `S=C(NN=Cc1ccccn1)NC1CC2C=CC1C2` (stereo not shown) [Example 16, 4-(Bicyclo[2.2.1]hept-5-en-2-yl)-1-(pyridin-2-ylmethylidene)thiosemicarbazide], for which the “Caspase activity Ratio (net RFU of test compound to control)” value stood at 3.5 with T-47D and 3.0 in the assay on ZR-75-1. Besides, the EC50 (commonly the concentration needed to bring the measured effect to its halfway point) with T-47D stood at 360 nM; in the assay on ZR-75-1 (Homo sapiens, read-out: Caspase potency EC50) it was 862 nM. Besides, the 50% growth inhibitory concentration (GI50) (usually the concentration that inhibits growth by half) was 5 nM in the assay with T47-D; 7 nM with MCF-7; 5 nM in the assay on SK-Br-3; 30 nM with MDA-MB-231; 30 nM in the assay with PC-3; 60 nM with HeLa. Also, the GI50 in the assay with DLD-1 worked out at 90 nM; in the assay on NCI-H23, 30 nM; in the assay on K562, 50 nM; in the assay on P388 it was 20 nM; with P388/ADR it was 20 nM.
Consider `Cc1cccc(C=NNC(=S)NC2CC3C=CC2C3)n1` (stereo not shown) [Example 17, 4-(Bicyclo[2.2.1]hept-5-en-2-yl)-1-(6-methyl-pyridin-2-ylmethylidene)thiosemicarbazide], for which the results for the “Caspase activity Ratio (net RFU of test compound to control)” value with T-47D and in the assay on ZR-75-1 were 3.3 and 2.5, respectively. Also, the 50% effective concentration (EC50) with T-47D stood at 866 nM. For the same compound, the “Caspase potency EC50” value in the assay with ZR-75-1 is on record as “INACTIVE”. Further, the GI50 in the assay with T47-D turned out to be 1000 nM; in the assay on MCF-7 it was 300 nM; with SK-Br-3, 750 nM; in the assay on DLD-1, 1700 nM; in the assay with NCI-H23, 3000 nM; with K562, 3000 nM.
